Values quoted from earlier work as cited in publication PMC10339703 (Clinical and Translational Science, 2023).

Columns and labels:
[1] = test system: patients with IPF; conditions: commonly reported adverse effects; cited from earlier work
[2] = test system: patients with IPF; conditions: most common side effects; cited from earlier work

## COC(=O)c1ccc2c(c1)NC(=O)/C2=C(\Nc1ccc(N(C)C(=O)CN2CCN(C)CC2)cc1)c1ccccc1 [Nintedanib]
[1]
  diarrhea, incidence: 62%
  elevation in liver function tests, incidence: 14%

## Cc1ccc(=O)n(-c2ccccc2)c1 [Pirfenidone]
[2]
  rash, incidence: 30%
